Measured values reported in the supplement of paper PMC10307832.

Columns and labels:
Assay in all cases: relative viability (nuclei count vs DMSO), 5 days (fraction); higher = more cells survive
NCI-H2347 = tested on: NCI-H2347
Outline: (§1)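 Medians of duplicate plates are given as relative viability. That measure is the nuclei count in treated wells divided by the count in vehicle wells. Counts were taken on 4× images of lung cancer cell lines in 1536-well plates, 5 days after pin-tool dosing the day after seeding with one drug alone or a fixed anchor-drug dose plus five library-drug doses (not always all listed) in √10 steps.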

NCI-H1734 = tested on: NCI-H1734
Outline: as §1

NCI-H322M = tested on: NCI-H322M
Outline: as §1

ABC-1 = tested on: ABC-1
Outline: as §1

RERF-LC-KJ = tested on: RERF-LC-KJ
Outline: as §1

A-427 = tested on: A-427
Outline: as §1

LC-2-ad = tested on: LC-2-ad
Outline: as §1

SW 1573 = tested on: SW 1573
Outline: as §1

NCI-H1915 = tested on: NCI-H1915
Outline: as §1

NCI-H838 = tested on: NCI-H838
Outline: as §1

NCI-H441 = tested on: NCI-H441
Outline: as §1

HCC-15 = tested on: HCC-15
Outline: as §1

NCI-H2023 = tested on: NCI-H2023
Outline: as §1

UMC-11 = tested on: UMC-11
Outline: as §1

NCI-H647 = tested on: NCI-H647
Outline: as §1

EPLC-272H = tested on: EPLC-272H
Outline: as §1

NCI-H2009 = tested on: NCI-H2009
Outline: as §1

CN1CCN(CCOc2cc(OC3CCOCC3)c3c(Nc4c(Cl)ccc5c4OCO5)ncnc3c2)CC1 [Saracatinib] + CC(C)C[C@H](NC(=O)[C@H](Cc1ccccc1)NC(=O)c1cnccn1)B(O)O [Bortezomib] (partner 0.002 µM)
relative viability (NCI-H2347; first compound 0.02 µM): 1.01 | relative viability (NCI-H2347; first compound 0.2 µM): 0.921 | relative viability (NCI-H2347; first compound 0.6325 µM): 1.2 | relative viability (NCI-H2347; first compound 2 µM): 0.893 | relative viability (NCI-H1734; first compound 0.02 µM): 1.08 | relative viability (NCI-H1734; first compound 0.6325 µM): 0.891 | relative viability (NCI-H1734; first compound 2 µM): 0.842 | relative viability (NCI-H322M; first compound 0.02 µM): 1.23 | relative viability (NCI-H322M; first compound 0.2 µM): 1.14 | relative viability (NCI-H322M; first compound 0.6325 µM): 1.23 | relative viability (NCI-H322M; first compound 2 µM): 0.988 | relative viability (ABC-1; first compound 0.02 µM): 0.275 | relative viability (ABC-1; first compound 0.2 µM): 0.282 | relative viability (ABC-1; first compound 0.6325 µM): 0.312 | relative viability (ABC-1; first compound 2 µM): 0.317 | relative viability (RERF-LC-KJ; first compound 0.02 µM): 1.09 | relative viability (RERF-LC-KJ; first compound 0.2 µM): 1.23 | relative viability (RERF-LC-KJ; first compound 0.6325 µM): 0.993 | relative viability (RERF-LC-KJ; first compound 2 µM): 0.942 | relative viability (A-427; first compound 0.02 µM): 1.03 | relative viability (A-427; first compound 0.2 µM): 0.804 | relative viability (A-427; first compound 0.6325 µM): 0.871 | relative viability (A-427; first compound 2 µM): 0.981 | relative viability (LC-2-ad; first compound 0.02 µM): 1.15 | relative viability (LC-2-ad; first compound 0.6325 µM): 1.12 | relative viability (LC-2-ad; first compound 2 µM): 0.843 | relative viability (SW 1573; first compound 0.02 µM): 0.997 | relative viability (SW 1573; first compound 0.2 µM): 0.906 | relative viability (SW 1573; first compound 0.6325 µM): 0.955 | relative viability (SW 1573; first compound 2 µM): 0.933 | relative viability (NCI-H1915; first compound 0.02 µM): 0.959 | relative viability (NCI-H1915; first compound 0.2 µM): 0.813 | relative viability (NCI-H1915; first compound 0.6325 µM): 0.978 | relative viability (NCI-H1915; first compound 2 µM): 0.886 | relative viability (NCI-H838; first compound 0.02 µM): 0.78 | relative viability (NCI-H838; first compound 0.2 µM): 0.702 | relative viability (NCI-H838; first compound 0.6325 µM): 0.482 | relative viability (NCI-H838; first compound 2 µM): 0.431 | relative viability (NCI-H441; first compound 0.02 µM): 0.451 | relative viability (NCI-H441; first compound 0.2 µM): 0.562 | relative viability (NCI-H441; first compound 0.6325 µM): 1.03 | relative viability (NCI-H441; first compound 2 µM): 0.831 | relative viability (HCC-15; first compound 0.02 µM): 0.969 | relative viability (HCC-15; first compound 0.2 µM): 0.986 | relative viability (HCC-15; first compound 0.6325 µM): 1.04 | relative viability (HCC-15; first compound 2 µM): 0.918 | relative viability (NCI-H2023; first compound 0.02 µM): 1.1 | relative viability (NCI-H2023; first compound 0.2 µM): 0.902 | relative viability (NCI-H2023; first compound 0.6325 µM): 1.05 | relative viability (NCI-H2023; first compound 2 µM): 0.906 | relative viability (UMC-11; first compound 0.02 µM): 0.667 | relative viability (UMC-11; first compound 0.6325 µM): 0.64 | relative viability (UMC-11; first compound 2 µM): 0.494 | relative viability (NCI-H647; first compound 0.02 µM): 0.993 | relative viability (NCI-H647; first compound 0.2 µM): 0.677 | relative viability (NCI-H647; first compound 0.6325 µM): 0.757 | relative viability (NCI-H647; first compound 2 µM): 0.641 | relative viability (EPLC-272H; first compound 0.02 µM): 0.812 | relative viability (EPLC-272H; first compound 0.2 µM): 0.786 | relative viability (EPLC-272H; first compound 0.6325 µM): 1.2 | relative viability (EPLC-272H; first compound 2 µM): 0.932 | relative viability (NCI-H2009; first compound 0.02 µM): 1.01 | relative viability (NCI-H2009; first compound 0.2 µM): 0.912 | relative viability (NCI-H2009; first compound 0.6325 µM): 1.03 | relative viability (NCI-H2009; first compound 2 µM): 0.747
